Measurements published in the supplement of paper PMC10307832.

Legend:
Assay in all cases: relative viability (nuclei count vs DMSO), 5 days (fraction); higher = more cells survive
Calu-6 = tested on: Calu-6
Outline: (§1)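 Lung cancer cell lines in 1536-well plates were dosed by pin tool the day after seeding, either with one drug alone or with a fixed anchor-drug dose plus five library-drug doses (not always all listed) in √10 steps. After 5 days, cells were fixed and their nuclei stained in one step (final 0.05% Triton X-100, 1% formaldehyde, 1 ug/ml Hoechst), then counted on 4× images. Relative viability is the nuclei count in treated wells divided by that in vehicle wells. Values are medians of duplicate plates.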

NCI-H1944 = tested on: NCI-H1944
Outline: as §1

NCI-H661 = tested on: NCI-H661
Outline: as §1

SK-LU-1 = tested on: SK-LU-1
Outline: as §1

IA-LM = tested on: IA-LM
Outline: as §1

NCI-H1666 = tested on: NCI-H1666
Outline: as §1

NCI-H1299 = tested on: NCI-H1299
Outline: as §1

PC-14 = tested on: PC-14
Outline: as §1

A549 = tested on: A549
Outline: as §1

EBC-1 = tested on: EBC-1
Outline: as §1

NCI-H596 = tested on: NCI-H596
Outline: as §1

NCI-H1703 = tested on: NCI-H1703
Outline: as §1

Q: What does the source list for `Cc1csc(=NC2CCCCC2)n1/N=C/c1ccc(O)c(O)c1O` [MIM1] + Cc1nc(NC(=O)N2CCC[C@H]2C(N)=O)sc1-c1ccnc(C(C)(C)C(F)(F)F)c1 [Alpelisib] (partner 2 µM)?
A: relative viability (Calu-6; first compound 0.2 µM): 0.971; relative viability (Calu-6; first compound 0.6325 µM): 1.02; relative viability (Calu-6; first compound 2 µM): 0.813; relative viability (Calu-6; first compound 6.325 µM): 0.339; relative viability (Calu-6; first compound 20 µM): 0.208; relative viability (NCI-H1944; first compound 0.2 µM): 0.831; relative viability (NCI-H1944; first compound 0.6325 µM): 0.849; relative viability (NCI-H1944; first compound 2 µM): 0.671; relative viability (NCI-H1944; first compound 6.325 µM): 0.733; relative viability (NCI-H1944; first compound 20 µM): 0.882; relative viability (NCI-H661; first compound 0.2 µM): 0.728; relative viability (NCI-H661; first compound 0.6325 µM): 0.847; relative viability (NCI-H661; first compound 2 µM): 0.655; relative viability (NCI-H661; first compound 6.325 µM): 0.472; relative viability (NCI-H661; first compound 20 µM): 0.305; relative viability (SK-LU-1; first compound 0.2 µM): 1; relative viability (SK-LU-1; first compound 0.6325 µM): 1.06; relative viability (SK-LU-1; first compound 2 µM): 1.26; relative viability (SK-LU-1; first compound 6.325 µM): 0.87; relative viability (SK-LU-1; first compound 20 µM): 0.715; relative viability (IA-LM; first compound 0.2 µM): 0.829; relative viability (IA-LM; first compound 0.6325 µM): 0.805; relative viability (IA-LM; first compound 2 µM): 0.644; relative viability (IA-LM; first compound 6.325 µM): 0.266; relative viability (IA-LM; first compound 20 µM): 0.148; relative viability (NCI-H1666; first compound 0.2 µM): 0.827; relative viability (NCI-H1666; first compound 0.6325 µM): 0.877; relative viability (NCI-H1666; first compound 2 µM): 0.815; relative viability (NCI-H1666; first compound 6.325 µM): 0.659; relative viability (NCI-H1666; first compound 20 µM): 0.405; relative viability (NCI-H1299; first compound 0.2 µM): 1.01; relative viability (NCI-H1299; first compound 0.6325 µM): 1.05; relative viability (NCI-H1299; first compound 2 µM): 1.06; relative viability (NCI-H1299; first compound 6.325 µM): 1.01; relative viability (NCI-H1299; first compound 20 µM): 0.87; relative viability (PC-14; first compound 0.2 µM): 0.886; relative viability (PC-14; first compound 0.6325 µM): 0.92; relative viability (PC-14; first compound 2 µM): 0.847; relative viability (PC-14; first compound 6.325 µM): 0.878; relative viability (PC-14; first compound 20 µM): 0.383; relative viability (A549; first compound 0.2 µM): 0.69; relative viability (A549; first compound 0.6325 µM): 0.879; relative viability (A549; first compound 2 µM): 0.79; relative viability (A549; first compound 6.325 µM): 0.56; relative viability (A549; first compound 20 µM): 0.102; relative viability (EBC-1; first compound 0.2 µM): 0.801; relative viability (EBC-1; first compound 0.6325 µM): 0.862; relative viability (EBC-1; first compound 2 µM): 0.785; relative viability (EBC-1; first compound 6.325 µM): 0.531; relative viability (EBC-1; first compound 20 µM): 0.296; relative viability (NCI-H596; first compound 0.2 µM): 0.491; relative viability (NCI-H596; first compound 0.6325 µM): 0.501; relative viability (NCI-H596; first compound 2 µM): 0.525; relative viability (NCI-H596; first compound 6.325 µM): 0.497; relative viability (NCI-H596; first compound 20 µM): 0.48; relative viability (NCI-H1703; first compound 0.2 µM): 0.329; relative viability (NCI-H1703; first compound 0.6325 µM): 0.34; relative viability (NCI-H1703; first compound 2 µM): 0.352; relative viability (NCI-H1703; first compound 6.325 µM): 0.171; relative viability (NCI-H1703; first compound 20 µM): 0.123
